One data set addresses T1, NURR-1/RXRγ (Homo sapiens, UniProt P48443).
T1 construct: expressed in transfected cells; host or cells: Cos-7 cells
The data set is described as follows: Transactivation test, NURR-1-Gal4/RXRγ, luciferase reporter in Cos-7 cells. The data set is classed as cell-based. The following applies: for Emax: COS-7, induction level relative to reference XCT0135908 at 2×10^−5 M (=100%), read-out: hNurr1_RXRgFL Emax (%); for EC50: Cos-7 cells, NURR-1-Gal4/RXRγ, luciferase reporter, read-out: hNurr1_RXRgFL EC50. Background: A reporter such as luciferase makes a cellular process visible.

Another data set addresses T2, NURR-1/RXRα (Homo sapiens, UniProt P19793).
T2 construct: expressed in transfected cells; host or cells: Cos-7 cells
Description: Transactivation test, NURR-1-Gal4/RXRα, luciferase reporter in Cos-7 cells. The following applies: for Emax: COS-7, induction level relative to reference XCT0135908 at 2×10^−5 M (=100%), read-out: hNurr1_RXRaFL Emax (%); for EC50: Cos-7 cells, NURR-1-Gal4/RXRα, luciferase reporter, read-out: hNurr1_RXRaFL EC50. It is filed as cell-based.

The structures appear in SMILES notation.

T1 sequence (P48443 whole entry): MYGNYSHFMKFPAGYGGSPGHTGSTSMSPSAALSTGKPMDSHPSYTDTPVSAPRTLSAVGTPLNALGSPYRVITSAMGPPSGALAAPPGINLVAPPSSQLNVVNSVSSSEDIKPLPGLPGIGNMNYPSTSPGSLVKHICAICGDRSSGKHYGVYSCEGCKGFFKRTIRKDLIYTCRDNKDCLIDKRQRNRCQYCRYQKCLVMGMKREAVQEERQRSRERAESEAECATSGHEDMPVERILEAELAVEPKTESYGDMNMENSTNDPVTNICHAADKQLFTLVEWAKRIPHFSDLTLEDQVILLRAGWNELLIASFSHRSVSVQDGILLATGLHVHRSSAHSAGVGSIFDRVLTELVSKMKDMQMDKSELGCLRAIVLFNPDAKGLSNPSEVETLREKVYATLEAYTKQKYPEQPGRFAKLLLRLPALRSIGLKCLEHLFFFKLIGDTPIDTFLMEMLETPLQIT
T1 sequence (P43354 whole entry partner): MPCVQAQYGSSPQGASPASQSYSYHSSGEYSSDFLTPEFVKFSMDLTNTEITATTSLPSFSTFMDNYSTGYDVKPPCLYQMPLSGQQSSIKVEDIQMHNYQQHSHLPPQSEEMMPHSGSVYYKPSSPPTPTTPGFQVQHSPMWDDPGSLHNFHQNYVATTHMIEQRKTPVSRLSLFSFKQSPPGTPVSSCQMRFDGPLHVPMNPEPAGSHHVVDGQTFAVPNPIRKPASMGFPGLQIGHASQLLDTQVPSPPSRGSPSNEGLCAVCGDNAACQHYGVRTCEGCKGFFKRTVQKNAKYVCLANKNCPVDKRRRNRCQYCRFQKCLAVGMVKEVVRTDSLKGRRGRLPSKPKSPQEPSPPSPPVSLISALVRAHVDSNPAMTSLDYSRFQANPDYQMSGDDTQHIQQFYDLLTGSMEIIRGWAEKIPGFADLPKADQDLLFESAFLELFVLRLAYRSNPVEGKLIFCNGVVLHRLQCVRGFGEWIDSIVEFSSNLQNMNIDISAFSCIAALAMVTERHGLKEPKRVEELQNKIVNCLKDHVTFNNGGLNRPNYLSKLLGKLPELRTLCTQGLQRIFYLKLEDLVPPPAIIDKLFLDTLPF
T1 sequence (P04386 1-147 partner limits assumed): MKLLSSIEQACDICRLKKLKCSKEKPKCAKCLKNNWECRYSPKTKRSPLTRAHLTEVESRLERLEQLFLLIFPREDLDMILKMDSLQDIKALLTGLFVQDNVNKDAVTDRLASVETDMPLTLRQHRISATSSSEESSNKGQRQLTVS
T2 sequence (P19793 whole entry): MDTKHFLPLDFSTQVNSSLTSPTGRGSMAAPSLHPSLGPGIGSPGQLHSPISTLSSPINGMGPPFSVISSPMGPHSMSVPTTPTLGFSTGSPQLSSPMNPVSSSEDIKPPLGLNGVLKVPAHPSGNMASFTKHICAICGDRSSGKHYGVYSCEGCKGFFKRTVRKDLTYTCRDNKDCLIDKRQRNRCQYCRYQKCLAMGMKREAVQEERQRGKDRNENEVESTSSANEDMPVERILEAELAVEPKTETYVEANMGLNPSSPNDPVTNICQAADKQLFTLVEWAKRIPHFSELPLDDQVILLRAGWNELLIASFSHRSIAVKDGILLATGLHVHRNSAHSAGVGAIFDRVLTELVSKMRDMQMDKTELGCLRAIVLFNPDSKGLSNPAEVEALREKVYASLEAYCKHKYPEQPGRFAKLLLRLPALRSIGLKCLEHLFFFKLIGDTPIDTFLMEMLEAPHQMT
T2 sequence (P43354 whole entry partner): as the sequence (P43354 whole entry partner) above
T2 sequence (P04386 1-147 partner limits assumed): as the sequence (P04386 1-147 partner limits assumed) above

A word on the Emax: it is the size of the effect at its maximum, as opposed to the concentration needed. By EC50 is commonly meant the concentration giving half of the maximal effect. As a reminder, the melting point is the temperature of the solid-liquid transition. Regarding `O=C(O)C1CN(c2cccc(N3C(=O)C4(CCCC4)c4cc(C(F)(F)F)ccc43)c2)C1` [Example 142, 1-[3-[2′-oxo-5′-(trifluoromethyl)spiro[cyclopentane-1,3′-indoline]-1′-yl]phenyl]azetidine-3-carboxylic acid], the melting point lay in the range of 87 to 91 °C. In addition, on NURR-1/RXRγ, the Emax was determined as 148% and the EC50 turned out to be 22 nM. Besides, on NURR-1/RXRα, the Emax was found to be 130% and the EC50 worked out at 11 nM.

In turn, `O=C(O)C1CN(c2cccc(N3c4ccc(C(F)(F)F)cc4C4CC43)c2)C1` (centres unmarked) [Example 143, 1-[3-[5-(trifluoromethyl)-1a,6b-dihydro-1H-cyclopropa[b]indol-2-yl]phenyl]azetidine-3-carboxylic acid] registered a melting point of 67 to 71 °C. Also, the EC50 at NURR-1/RXRγ was determined as 45 nM. In addition, on NURR-1/RXRα, the Emax was 97% and the EC50 is 18 nM.

Compound `CC1(C)CCC2C(C1)c1cc(C(F)(F)F)ccc1N2c1cccc(N2CC(C(=O)O)C2)c1` (centres unmarked) [Example 145, 1-[3-[3,3-dimethyl-6-(trifluoromethyl)-2,4,4a,9a-tetrahydro-1H-carbazol-9-yl]phenyl]azetidine-3-carboxylic acid] displayed a melting point of 96 to 100 °C. In addition, at NURR-1/RXRγ, the Emax was found to be 96% and the 50% effective concentration (EC50) came to 6 nM. On NURR-1/RXRα, the Emax turned out to be 98% and the EC50 amounted to 4 nM.

Regarding `O=C(O)C1CN(c2cccc(N3c4ccc(C(F)(F)F)cc4C4CCCC43)c2)C1` (centres unmarked) [Example 146, 1-[3-[7-(trifluoromethyl)-2,3,3a,8b-tetrahydro-1H-cyclopenta[b]indol-4-yl]phenyl]azetidine-3-carboxylic acid], the melting point lay in the range of 61 to 65 °C. For the same compound, at NURR-1/RXRγ, the Emax worked out at 107% and the EC50 came out at 17 nM. For the same compound, on NURR-1/RXRα, the Emax was found to be 96% and the EC50 was found to be 10 nM.

Compound `CC(C)Cn1c(=O)n(-c2cccc(N3CC(C(=O)O)C3)c2)c2ccc(C(F)(F)F)cc21` [Example 148] registered a melting point of 134 to 144 °C. In addition, at NURR-1/RXRγ, the Emax turned out to be 130% and the EC50 amounted to 56 nM. Further, on NURR-1/RXRα, the Emax came out at 122% and the EC50 was 31 nM.

As for `Cc1cn(-c2cccc(N3CC(C(=O)NS(C)(=O)=O)C3)c2)c2ccc(C(F)(F)F)cc12` [Example 150, N-methylsulfonyl-1-[3-[3-methyl-5-(trifluoromethyl)indol-1-yl]phenyl]azetidine-3-carboxamide], the melting point lay within 99 to 109 °C. Moreover, at NURR-1/RXRγ, the Emax turned out to be 79% and the EC50 worked out at 4 nM. Further, at NURR-1/RXRα, the maximal response (Emax) worked out at 89% and the EC50 worked out at 4 nM.

Take `Cc1cn(-c2cccc(N3CC(C(=O)NC4CC4)C3)c2)c2ccc(C(F)(F)F)cc12` [Example 184, N-cyclopropyl-1-[3-[3-methyl-5-(trifluoromethyl)indol-1-yl]phenyl]azetidine-3-carboxamide]: the melting point fell in the range of 182 to 184 °C. Also, at NURR-1/RXRγ, the Emax is 91% and the EC50 was determined as 7 nM. In addition, at NURR-1/RXRα, the Emax was 90% and the EC50 is 5 nM.

Consider `Cc1cn(-c2cccc(N3CC(C(N)=O)C3)c2)c2ccc(C(F)(F)F)cc12` [Example 185, 1-[3-[3-methyl-5-(trifluoromethyl)indol-1-yl]phenyl]azetidine-3-carboxamide], for which the melting point lay within 160 to 163 °C. On NURR-1/RXRγ, the Emax was 90% and the EC50 turned out to be 7 nM. For the same compound, on NURR-1/RXRα, the Emax was found to be 95% and the EC50 was found to be 5 nM.

As for `CC1(C)CNc2c(cc(OC(F)(F)F)cc2-c2cccc(N3CC(C(=O)O)C3)c2)O1` [Example 188, 1-[3-[2.2-dimethyl-7-(trifluoromethoxy)-3,4-dihydro-1,4-benzoxazin-5-yl]phenyl]azetidine-3-carboxylic acid], the melting point fell in the range of 67 to 74 °C. Also, on NURR-1/RXRγ, the Emax was 98% and the EC50 came out at 9 nM. For the same compound, on NURR-1/RXRα, the Emax was determined as 100% and the EC50 amounted to 7 nM.

The compound `CC1(C)CNc2c(cc(Cl)cc2-c2cccc(N3CC(C(=O)O)C3)c2)O1` [Example 189, 1-[3-(7-chloro-2,2-dimethyl-3,4-dihydro-1,4-benzoxazin-5-yl)phenyl]azetidine-3-carboxylic acid] returned a melting point of 81 to 88 °C. Further, at NURR-1/RXRγ, the Emax turned out to be 119% and the EC50 is 475 nM. Moreover, at NURR-1/RXRα, the Emax was 110% and the EC50 amounted to 13 nM.

As to `Cc1cc2c(c(-c3cccc(N4CC(C(=O)O)C4)c3)c1)NCC(C)(C)O2` [Example 190, 1-[3-(2,2,7-trimethyl-3,4-dihydro-1,4-benzoxazin-5-yl)phenyl]azetidine-3-carboxylic acid], the melting point fell in the range of 82 to 90 °C. Besides, at NURR-1/RXRγ, the Emax amounted to 109% and the EC50 worked out at 36 nM. Further, on NURR-1/RXRα, the Emax worked out at 110% and the half-maximal effective concentration (EC50) is 18 nM.

Turning to `CC(C)c1cc2c(c(-c3cccc(N4CC(C(=O)O)C4)c3)c1)NCC(C)(C)O2` [Example 191, 1-[3-(7-isopropyl-2,2-dimethyl-3,4-dihydro-1,4-benzoxazin-5-yl)phenyl]azetidine-3-carboxylic acid], the melting point was in the range of 78 to 83 °C. For the same compound, at NURR-1/RXRγ, the Emax was found to be 91% and the EC50 stood at 47 nM. On NURR-1/RXRα, the Emax stood at 90% and the EC50 was determined as 31 nM.

With `CC1(C)CNc2c(cc(C3CC3)cc2-c2cccc(N3CC(C(=O)O)C3)c2)O1` [Example 192, 1-[3-(7-cyclopropyl-2,2-dimethyl-3,4-dihydro-1,4-benzoxazin-5-yl)phenyl]azetidine-3-carboxylic acid], the melting point was in the range of 70 to 74 °C. For the same compound, at NURR-1/RXRγ, the Emax stood at 89% and the EC50 worked out at 102 nM. Moreover, on NURR-1/RXRα, the Emax came out at 92% and the EC50 was determined as 40 nM.

In the case of `COc1cc2c(c(-c3cccc(N4CC(C(=O)[O-])C4)c3)c1)NCC(C)(C)O2.[Na+]` [Example 193, sodium 1-[3-(7-methoxy-2,2-dimethyl-3,4-dihydro-1,4-benzoxazin-5-yl)phenyl]azetidine-3-carboxylate], the melting point was 144 to 152 °C. Further, at NURR-1/RXRγ, the Emax came out at 85% and the EC50 was 799 nM. Further, at NURR-1/RXRα, the Emax was 109% and the EC50 amounted to 1170 nM.

`CC1Nc2c(cc(C(F)(F)F)cc2-c2cccc(N3CC(C(=O)O)C3)c2)OC1(C)C` (centres unmarked) [Example 197, 1-[3-[2,2,3-trimethyl-7-(trifluoromethyl)-3,4-dihydro-1,4-benzoxazin-5-yl]phenyl]azetidine-3-carboxylic acid] returned a melting point of 83 to 95 °C. Further, at NURR-1/RXRγ, the Emax stood at 50% and the EC50 was 34 nM. On NURR-1/RXRα, the Emax is 55% and the EC50 is 14 nM.

`CC(C)C1CNc2c(cc(C(F)(F)F)cc2-c2cccc(N3CC(C(=O)O)C3)c2)O1` (centres unmarked) [Example 198, 1-[3-[2-isopropyl-7-(trifluoromethyl)-3,4-dihydro-2H-1,4-benzoxazin-5yl]phenyl]azetidine-3-carboxylic acid]: the melting point is 88 to 89 °C. In addition, on NURR-1/RXRγ, the Emax was found to be 59% and the EC50 was found to be 38 nM. In addition, on NURR-1/RXRα, the Emax was found to be 71% and the EC50 amounted to 14 nM.

Turning to `O=C(O)C1CN(c2cccc(-c3cc(C(F)(F)F)cc4c3NCCC4)c2)C1` [Example 201, 1-[3-[6-(trofluromethyl)-1,2,3,4-tetrahydroquinolin-8-yl]phenyl]azetidine-3-carboxylic acid], the melting point fell in the range of 75 to 81 °C. Besides, at NURR-1/RXRγ, the Emax was determined as 65% and the EC50 amounted to 760 nM. Moreover, at NURR-1/RXRα, the Emax was 99% and the EC50 was found to be 284 nM.

In turn, `CC1(C)CNc2cc(C(F)(F)F)cc(-c3cccc(N4CC(C(=O)O)C4)c3)c2O1` [Example 202, 1-[3-[2,2-dimethyl-6-(trifluoromethyl)-3,4-dihydro-1,4-benzoxazin-8-yl]phenyl]azetidine-3-carboxylic acid] showed a melting point of 160 to 169 °C. For the same compound, on NURR-1/RXRγ, the Emax is 51% and the EC50 came out at 303 nM. At NURR-1/RXRα, the Emax is 55% and the EC50 is 309 nM.

The compound `CC1(C)CNc2c(cc(C(C)(C)C)cc2-c2cccc(N3CC(C(=O)[O-])C3)c2)C1.[Na+]` [Example 204, sodium 1-[3-(6-tert-butyl-3,3-dimethyl-2,4-dihydro-1H-quinolin-8-yl)phenyl]azetidine-3-carboxylate] came in with a melting point of 163 to 173 °C. Besides, on NURR-1/RXRγ, the maximal effect (Emax) is 84% and the EC50 amounted to 3 nM. At NURR-1/RXRα, the Emax was determined as 87% and the EC50 was 3 nM.

`CC1N(c2cccc(N3CC(C(=O)O)C3)c2)c2ccc(C(F)(F)F)cc2OC1(C)C` (centres unmarked) [Example 216, 1-[3-[2,2,3-trimethyl-7-(trifluoromethyl)-3H-1,4-benzoxazin-4-yl]phenyl]azetidine-3-carboxylate acid] had a melting point of 70 to 80 °C. In addition, on NURR-1/RXRγ, the Emax came to 115% and the EC50 was 13 nM. Moreover, on NURR-1/RXRα, the Emax amounted to 98% and the EC50 amounted to 8 nM.

The compound `CCC1(CC)CN(c2cccc(N3CC(C(=O)O)C3)c2)c2ccc(C(F)(F)F)cc2O1` [Example 218, 1-[3-[2,2-diethyl-7-(trifluoromethyl)-3H-1,4-benzoxazin-4-yl]phenyl]azetidine-3-carboxylic acid] came in with a melting point of 70 to 79 °C. Besides, at NURR-1/RXRγ, the Emax came to 73% and the EC50 came out at 14 nM. In addition, on NURR-1/RXRα, the Emax came out at 72% and the EC50 came to 5 nM.

These data come from US20170066717A1, “NEW PHENYLAZETIDINECARBOXYLATE OR -CARBOXAMIDE COMPOUNDS” (INVENTIVA, priority 2014, published 2017).
